Results on 26 compounds are retold here after the NIST ThermoML archive (doi:10.1016/j.jct.2016.10.013).

± gives the expanded uncertainty stated by the source.

Data set [1] can be described thus: activity coefficient (dimensionless); of the first substance listed, at infinite dilution; xn = mol fraction of the nth substance listed. As to conditions: 101.33 kPa, Liquid, Chromatography, x1 = 0.
The nature of data set [2]: refractive index (Na D-line) (dimensionless). Particulars: 293.15 K; 101.33 kPa; Liquid; Standard Abbe refractometry.
The conditions of data set [3]: 288.15 K; 101.33 kPa; Liquid; Vibrating tube method.

On to `C1CCCC1` [cyclopentane] + OCCO, for which the activity coefficient was 163 ± 7 in data set [1] (303.15 K), 149 ± 7 in data set [1] (313.15 K) and 133 ± 6 in data set [1] (323.15 K).
The corresponding values for `CC1CCCCC1` [methylcyclohexane] + OCCO are 473 ± 21, 407 ± 18 and 370 ± 17.
For `CCCCCCCC` [octane] + OCCOCCO, the activity coefficient amounted to 249 ± 11 in data set [1] (304.15 K), 223 ± 10 in data set [1] (313.15 K) and 203 ± 9 in data set [1] (323.15 K).
For `C=CCCCCC` [1-heptene] + OCCOCCO, in that order: 84 ± 3.8, 77.8 ± 3.5 and 73.4 ± 3.3.
`CCCCC` [pentane] + OCCOCCO: the activity coefficient in data set [1] (304.15 K) turned out to be 74.1 ± 3.3; in data set [1] (313.15 K), 70.5 ± 3.1; in data set [1] (323.15 K) it was 66.4 ± 3.
On to `CCCCCCCCC` [nonane] + OCCO, for which the results for the activity coefficient in data set [1] (303.15 K), in data set [1] (313.15 K) and in data set [1] (323.15 K) were 2960 ± 140, 2320 ± 110 and 1970 ± 90, respectively.
`OCCO` [1,2-ethanediol]: the refractive index in data set [2] stood at 1.4319 ± 0.0004.
With `CCCCCC` [hexane] + OCCOCCO, the activity coefficient in data set [1] (304.15 K) came out at 112 ± 5; in data set [1] (313.15 K) it was 102 ± 5; in data set [1] (323.15 K), 94.2 ± 4.2.
As to `CCCCC` [pentane] + OCCO, the activity coefficient in data set [1] (303.15 K) was determined as 436 ± 20; in data set [1] (313.15 K) it was 389 ± 18; in data set [1] (323.15 K), 338 ± 15.
The corresponding values for `C=CCCCC` [hex-1-ene] + OCCO are 330 ± 15, 298 ± 13 and 272 ± 12.
Consider `CC1CCCCC1` [methylcyclohexane] + OCCOCCO, for which the activity coefficient came to 77.2 ± 5.3 in data set [1] (304.15 K), 71.1 ± 4.9 in data set [1] (313.15 K) and 66 ± 4.5 in data set [1] (323.15 K).
Consider `C=CCCCCCCC` [1-nonene] + OCCOCCO, for which the activity coefficient came out at 188 ± 8 in data set [1] (304.15 K), 174 ± 8 in data set [1] (313.15 K) and 159 ± 7 in data set [1] (323.15 K).
For `C=CCCCCC` [1-heptene] + OCCO, the figures for the activity coefficient in data set [1] (303.15 K), in data set [1] (313.15 K) and in data set [1] (323.15 K) were 570 ± 26, 503 ± 23 and 452 ± 20, respectively.
As for `C=CCCCCCC` [oct-1-ene] + OCCOCCO, the values for the activity coefficient in data set [1] (304.15 K), in data set [1] (313.15 K) and in data set [1] (323.15 K) were 126 ± 6, 116 ± 5 and 108 ± 5, respectively.
The corresponding values for `C1CCCCC1` [cyclohexane] + OCCOCCO are 50.6 ± 2.3, 46.7 ± 2.1 and 43.5 ± 1.9.
As to `CCCCCC` [hexane] + OCCO, the activity coefficient in data set [1] (303.15 K) was 716 ± 32; in data set [1] (313.15 K), 620 ± 28; in data set [1] (323.15 K) it was 543 ± 25.
With `C1CCCCC1` [cyclohexane] + OCCO, the values for the activity coefficient in data set [1] (303.15 K), in data set [1] (313.15 K) and in data set [1] (323.15 K) were 270 ± 12, 238 ± 11 and 212 ± 10, respectively.
With `C1CCCC1` [cyclopentane] + OCCOCCO, the activity coefficient in data set [1] (304.15 K) turned out to be 33.8 ± 1.5; in data set [1] (313.15 K), 31.6 ± 1.4; in data set [1] (323.15 K) it was 30.1 ± 1.3.
As for `CCCCCCC` [heptane] + OCCOCCO, the results for the activity coefficient in data set [1] (304.15 K), in data set [1] (313.15 K) and in data set [1] (323.15 K) were 174 ± 8, 151 ± 7 and 140 ± 6, respectively.
Turning to `CCCCCCCC` [octane] + OCCO, the activity coefficient in data set [1] (303.15 K) came out at 1960 ± 89; in data set [1] (313.15 K), 1600 ± 73; in data set [1] (323.15 K), 1340 ± 61.
`C=CCCCC` [hex-1-ene] + OCCOCCO: the activity coefficient came out at 56.3 ± 2.5 in data set [1] (304.15 K), 52.4 ± 2.3 in data set [1] (313.15 K) and 50.2 ± 2.2 in data set [1] (323.15 K).
On to `C=CCCCCCC` [oct-1-ene] + OCCO, for which the activity coefficient in data set [1] (303.15 K) worked out at 962 ± 44; in data set [1] (313.15 K) it was 819 ± 37; in data set [1] (323.15 K), 736 ± 33.
With `OCCOCCO` [diethylene glycol], in data set [3], the mass density is reported as 1120.3 ± 2 kg/m3. Also, the refractive index in data set [2] was determined as 1.4472 ± 0.0004.
On to `C=CCCCCCCC` [1-nonene] + OCCO, for which the results for the activity coefficient in data set [1] (303.15 K), in data set [1] (313.15 K) and in data set [1] (323.15 K) were 1610 ± 73, 1300 ± 59 and 1170 ± 53, respectively.
`CCCCCCCCC` [nonane] + OCCOCCO: the results for the activity coefficient in data set [1] (304.15 K), in data set [1] (313.15 K) and in data set [1] (323.15 K) were 371 ± 17, 329 ± 15 and 295 ± 13, respectively.
Take `CCCCCCC` [heptane] + OCCO: the activity coefficient in data set [1] (303.15 K) is 1200 ± 54; in data set [1] (313.15 K), 1030 ± 47; in data set [1] (323.15 K) it was 860 ± 39.
